Measurements taken from patent US20200178526A1, “Emulsifiable Concentrates” (priority 2016, published 2020).
Where two headings read alike, the source gives them in different places.

Columns and labels:
[1] = Solubility screening of bifenthrin in various solvents; type: physicochemical
Protocol: Four-milliliter (mL) vials are charged with bifenthrin (10 to 50 wt %), a stir bar, and solvent (90 to 50 wt %). The vials are capped and taped to seal. The vials are secured in a vial rack and shaken on a laboratory shaker for 12 hours at ambient lab temperature (21° C.) and humidity (51%). After 12 hours each sample set is evaluated for solubility of solid:
Yes—Homogeneous clear solution
No—Solids present in the sample

[2] = obtained from Hansen's book, pages 399 and 418; cited from earlier work
[3] = bifenthrin 10 wt % in solvent, shaken 12 hours at 21° C., humidity 51%
[4] = bifenthrin 20 wt % in solvent, shaken 12 hours at 21° C., humidity 51%
[5] = bifenthrin 30 wt % in solvent, shaken 12 hours at 21° C., humidity 51%
[6] = bifenthrin 40 wt % in solvent, shaken 12 hours at 21° C., humidity 51%
[7] = bifenthrin 50 wt % in solvent, shaken 12 hours at 21° C., humidity 51%

Molecule | Solubility of Bifenthrin, 10 wt % [1] | Solubility of Bifenthrin, 20 wt % [1] | Solubility of Bifenthrin, 30 wt % [1] | Solubility of Bifenthrin, 40 wt % [1] | Solubility of Bifenthrin, 50 wt % [1] | Hansen Parameter δH (hydrogen bonding) [2] | Hansen Parameter δP (polar) [2] | Solubility of Bifenthrin, 10 wt % [1, 3] | Solubility of Bifenthrin, 20 wt % [1, 4] | Solubility of Bifenthrin, 30 wt % [1, 5] | Solubility of Bifenthrin, 40 wt % [1, 6] | Solubility of Bifenthrin, 50 wt % [1, 7]
CCCCOCCOC(C)=O [BUTYL CELLOSOLVE ™ ACETATE, ethylene glycol n-butyl ether acetate] | – | – | – | – | – | 8.8 (J/cc)^1/2 | 4.5 (J/cc)^1/2 | YES | YES | YES | YES | NO
CC(CO)OCC(C)Oc1ccccc1 (centres unmarked) [DOWANOL ™ DiPPH, dipropylene glycol phenyl ether] | YES | NO | NO | NO | NO | – | – | – | – | – | – | –
OCCOc1ccccc1 [DOWANOL ™ EPH, ethylene glycol phenyl ether] | – | – | – | – | – | – | – | NO | NO | NO | NO | NO
CC(=O)OCC(C)OC(C)=O (centres unmarked) [DOWANOL ™ PGDA, propylene glycol diacetate] | YES | YES | YES | NO | NO | – | – | – | – | – | – | –
CC(O)COc1ccccc1 (centres unmarked) [DOWANOL ™ PPH, propylene glycol phenyl ether] | YES | NO | NO | NO | NO | – | – | – | – | – | – | –
polyethylene glycol monophenyl ether [DOWANOL ™ EPH6] | – | – | – | – | – | – | – | NO | NO | NO | NO | NO

Second part, led by results:

Solubility of Bifenthrin, 10 wt % [1] | Solubility of Bifenthrin, 20 wt % [1] | Solubility of Bifenthrin, 30 wt % [1] | Solubility of Bifenthrin, 40 wt % [1] | Solubility of Bifenthrin, 50 wt % [1] | Molecule | Hansen Parameter δH (hydrogen bonding) [2] | Hansen Parameter δP (polar) [2] | Solubility of Bifenthrin, 10 wt % [1, 3] | Solubility of Bifenthrin, 20 wt % [1, 4] | Solubility of Bifenthrin, 30 wt % [1, 5] | Solubility of Bifenthrin, 40 wt % [1, 6] | Solubility of Bifenthrin, 50 wt % [1, 7]
YES | YES | YES | NO | NO | CCCCOCCOCCOC(C)=O [BUTYL CARBITOL ™ ACETATE, diethylene glycol n-butyl ether acetate] | 8.2 (J/cc)^1/2 | 4.1 (J/cc)^1/2 | – | – | – | – | –
YES | YES | NO | NO | NO | CCOCCOCCO [CARBITOL ™, diethylene glycol monoethyl ether] | – | – | – | – | – | – | –
YES | YES | NO | NO | NO | CCCCCCCCCCCC(=O)OCC [DIAMOSOLV ™ 323, ethyl laurate] | – | – | – | – | – | – | –
YES | YES | NO | NO | NO | CCCCOC(C)COC(C)COC(C)CO (centres unmarked) [DOWANOL ™ TPNB, tripropylene glycol n-butyl ether] | – | – | – | – | – | – | –
YES | YES | YES | NO | NO | CCCCOCCOC(=O)c1ccccc1 [XU40782.00, ethylene glycol n-butyl ether benzoate] | – | – | – | – | – | – | –
